# Biological target: T1, human PTH1 receptor (Homo sapiens, UniProt Q03431)
# T1 sequence (Q03431 27-593): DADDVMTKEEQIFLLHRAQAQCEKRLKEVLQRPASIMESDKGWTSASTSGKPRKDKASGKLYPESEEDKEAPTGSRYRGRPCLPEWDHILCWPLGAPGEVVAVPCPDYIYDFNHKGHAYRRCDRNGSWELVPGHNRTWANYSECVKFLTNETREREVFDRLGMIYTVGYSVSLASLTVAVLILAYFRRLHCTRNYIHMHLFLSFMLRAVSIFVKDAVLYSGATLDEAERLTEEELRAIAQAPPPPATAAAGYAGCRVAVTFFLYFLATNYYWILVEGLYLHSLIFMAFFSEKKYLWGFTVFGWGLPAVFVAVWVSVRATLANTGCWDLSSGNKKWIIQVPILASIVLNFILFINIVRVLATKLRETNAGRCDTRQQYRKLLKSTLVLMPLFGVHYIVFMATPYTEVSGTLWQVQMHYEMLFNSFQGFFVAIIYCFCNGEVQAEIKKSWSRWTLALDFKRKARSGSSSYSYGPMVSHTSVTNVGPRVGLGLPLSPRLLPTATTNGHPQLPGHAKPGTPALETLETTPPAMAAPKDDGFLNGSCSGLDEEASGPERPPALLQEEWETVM
# Assay: In vitro cAMP signal activity in HKRK-B7 cells (LLC-PK1 cells overexpressing the human PTH1 receptor)
# Type: cell-based
# Settings: HKRK-B7 cells; compound at 1×10^−3 M; cAMP produced as percentage of that produced by hPTH(1-34) at 100 nM
row,cAMP production activity (%),SMILES
1,58,"CNc1cc(C)c(/C=C/[S@TB3](=O)(=O)N2CCC3(CC2)N=C(CCCCCCCCCCCNC(=O)OC(C)(C)C)NC3=O)c(C)c1 [Compound 1106, (11-{8-[(E)-2-(2,6-dimethyl-4-methylamino-phenyl)-ethenesulfonyl]-4-oxo-1,3,8-triaza-spiro[4.5]dec-1-en-2-yl}-undecyl)-carbamic acid tert-butyl ester]"
2,58,"Cc1cc(S(=O)(=O)NCCCCO)ccc1CCS(=O)(=O)N1CCC2(CC1)N=C(c1cccc(OC(F)(F)F)c1)NC2=O [Compound 287, N-(4-hydroxy-butyl)-3-methyl-4-{2-[4-oxo-2-(3-trifluoromethoxy-phenyl)-1,3,8-triaza-spiro[4.5]dec-1-ene-8-sulfonyl]-ethyl}-benzenesulfonamide]"
3,114,"CCCCCc1ccc(C2=NC3(CCN(S(=O)(=O)CCc4c(C)cc(N(C)C(N)=O)cc4C)CC3)C(=O)N2)cc1 [Compound 1342, 1-(3,5-dimethyl-4-{2-[4-oxo-2-(4-pentyl-phenyl)-1,3,8-triaza-spiro[4.5]dec-1-ene-8-sulfonyl]-ethyl}-phenyl)-1-methyl-urea]"
4,16,"Cc1cc(C(=O)N2CC(F)C2)cc(C)c1/C=C/S(=O)(=O)N1CCC2(CC1)N=C(c1cccc(OC(F)(F)F)c1)NC2=O [Compound 963, 8-{(E)-2-[4-(3-Fluoro-azetidine-1-carbonyl)-2,6-dimethyl-phenyl]-ethenesulfonyl}-2-(3-trifluoromethoxy-phenyl)-1,3,8-triaza-spiro[4.5]dec-1-en-4-one]"
5,63,"CN(C)CCn1ccc2c(CCS(=O)(=O)N3CCC4(CC3)N=C(C3CCCCC3)NC4=O)cccc21 [Compound 313, 2-cyclohexyl-8-{2-[1-(2-dimethylamino-ethyl)-1H-indol-4-yl]-ethanesulfonyl}-1,3,8-triaza-spiro[4.5]dec-1-en-4-one]"
6,79,"CC(=O)Nc1ccc(CCS(=O)(=O)N2CCC3(CC2)N=C([C@H]2CC[C@@H](CC(F)(F)C(F)(F)F)CC2)NC3=O)c(C)c1 [Compound 1069, N-[3-methyl-4-(2-{4-oxo-2-[4-(2,2,3,3,3-pentafluoro-propyl)-cyclohexyl]-1,3,8-triaza-spiro[4.5]dec-1-ene-8-sulfonyl}-ethyl)-phenyl]-acetamide]"
7,87,"Cc1cc(N(C)C(N)=O)cc(C)c1CCS(=O)(=O)N1CCC2(CC1)N=C(C1CCCCCC1)NC2=O [Compound 934, 1-{4-[2-(2-Cycloheptyl-4-oxo-1,3,8-triaza-spiro[4.5]dec-1-ene-8-sulfonyl)-ethyl]-3,5-dimethyl-phenyl}-1-methyl-urea]"
8,91,"Cc1cc(C(=O)N2CCC(C)(O)CC2)cc(C)c1/C=C/S(=O)(=O)N1CCC2(CC1)N=C(c1ccc(OCCCC(F)(F)C(F)(F)F)c(C(F)(F)F)c1)NC2=O [Compound 1202, 8-{(E)-2-[4-(4-hydroxy-4-methyl-piperidine-1-carbonyl)-2,6-dimethyl-phenyl]-ethenesulfonyl}-2-[4-(4,4,5,5,5-pentafluoro-pentyloxy)-3-trifluoromethyl-phenyl]-1,3,8-triaza-spiro[4.5]dec-1-en-4-one]"
9,122,"COCCCCCCCC1=NC2(CCN([S@TB18](=O)(=O)/C=C/c3c(C)cc(N(C)C(N)=O)cc3C)CC2)C(=O)N1 [Compound 1123, 1-(4-{(E)-2-[2-(7-methoxy-heptyl)-4-oxo-1,3,8-triaza-spiro[4.5]dec-1-ene-8-sulfonyl]-vinyl}-3,5-dimethyl-phenyl)-1-methyl-urea]"
10,42,"O=C1NC(C2CCCCC2)=NC12CCN(S(=O)(=O)c1cccc(Cl)c1)CC2 [Compound 1, 8-(3-Chloro-benzenesulfonyl)-2-cyclohexyl-1,3,8-triaza-spiro[4.5]dec-1-en-4-one]"
11,68,"Cc1cc(C(=O)N(C)C)ccc1CCS(=O)(=O)N1CCC2(CC1)N=C(Nc1cccc(C(F)(F)F)c1)NC2=O [Compound 1395, 3,N,N-Trimethyl-4-{2-[4-oxo-2-(3-trifluoromethyl-phenylamino)-1,3,8-triaza-spiro[4.5]dec-1-ene-8-sulfonyl]-ethyl}-benzamide]"
12,33,"Cc1cc(N2CCOC2=O)ccc1/C=C/S(=O)(=O)N1CCC2(CC1)N=C(C1CCC(C)CC1)NC2=O (stereo not drawn) [Compound 513, 2-(4-methyl-cyclohexyl)-8-{(E)-2-[2-methyl-4-(2-oxo-oxazolidin-3-yl)-phenyl]-ethenesulfonyl}-1,3,8-triaza-spiro[4.5]dec-1-en-4-one]"
13,118,"Cc1cc(C(=O)N2CCC(O)CC2)cc(C)c1/C=C/S(=O)(=O)N1CCC2(CC1)N=C(c1ccc(F)c(OCCCC(F)(F)C(F)(F)F)c1)NC2=O [Compound 1091, 2-[4-Fluoro-3-(4,4,5,5,5-pentafluoro-pentyloxy)-phenyl]-8-{(E)-2-[4-(4-hydroxy-piperidine-1-carbonyl)-2,6-dimethyl-phenyl]-ethenesulfonyl}-1,3,8-triaza-spiro[4.5]dec-1-en-4-one]"
14,45,"CC(C)COC(=O)Nc1ccc(CCS(=O)(=O)N2CCC3(CC2)N=C(C2CCCCC2)NC3=O)c(C(F)(F)F)c1 [Compound 661, {4-[2-(2-cyclohexyl-4-oxo-1,3,8-triaza-spiro[4.5]dec-1-ene-8-sulfonyl)-ethyl]-3-trifluoromethyl-phenyl}-carbamic acid isobutyl ester]"
15,75,"Cc1cc(N(C)C(N)=O)cc(C)c1CCS(=O)(=O)N1CCC2(CC1)N=C(c1ccc(F)c(OC(F)(F)F)c1)NC2=O [Compound 1028, 1-(4-{2-[2-(4-Fluoro-3-trifluoromethoxy-phenyl)-4-oxo-1,3,8-triaza-spiro[4.5]dec-1-ene-8-sulfonyl]-ethyl}-3,5-dimethyl-phenyl)-1-methyl-urea]"
16,67,"Cc1cc(OC[C@H](O)CO)cc(C)c1CCS(=O)(=O)N1CCC2(CC1)N=C(C1CCCCC1)NC2=O [Compound 279, 2-cyclohexyl-8-{2-[4-((R)-2,3-dihydroxy-propoxy)-2,6-dimethyl-phenyl]-ethanesulfonyl}-1,3,8-triaza-spiro[4.5]dec-1-en-4-one]"
17,12,"O=C1NC(c2ccc(C(F)(F)F)cc2)=NC12CCN(S(=O)(=O)c1cccc(Cl)c1)CC2 [Compound 12, 8-(3-chloro-benzenesulfonyl)-2-(4-trifluoromethyl-phenyl)-1,3,8-triaza-spiro[4.5]dec-1-en-4-one]"
18,79,"CC(=O)N(C)c1cc(C)c(CCS(=O)(=O)N2CCC3(CC2)N=C(C2CCC(CCC(F)(F)F)CC2)NC3=O)c(C)c1 (stereo not drawn) [Compound 759, N-[3,5-dimethyl-4-(2-{4-oxo-2-[4-(3,3,3-trifluoro-propyl)-cyclohexyl]-1,3,8-triaza-spiro[4.5]dec-1-ene-8-sulfonyl}-ethyl)-phenyl]-N-methyl-acetamide]"
19,132,"Cc1cc(N(C)C(N)=O)cc(C)c1CCS(=O)(=O)N1CCC2(CC1)N=C(C1CCC(CCC(F)(F)F)CC1)NC2=O (stereo not drawn) [Compound 696, 1-[3,5-Dimethyl-4-(2-{4-oxo-2-[4-(3,3,3-trifluoro-propyl)-cyclohexyl]-1,3,8-triaza-spiro[4.5]dec-1-ene-8-sulfonyl}-ethyl)-phenyl]-1-methyl-urea]"
20,119,"CCCCCc1ccc(C2=NC3(CCN([S@TB18](=O)(=O)/C=C/c4c(C)cc(N(C)C(N)=O)cc4C)CC3)C(=O)N2)cc1OC [Compound 1128, 1-(4-{(E)-2-[2-(3-methoxy-4-pentyl-phenyl)-4-oxo-1,3,8-triaza-spiro[4.5]dec-1-ene-8-sulfonyl]-vinyl}-3,5-dimethyl-phenyl)-1-methyl-urea]"
21,93,"Cc1cc(N2C(=O)CN(C)C2=O)cc(C)c1CCS(=O)(=O)N1CCC2(CC1)N=C(C1CCC(CCC(F)(F)F)CC1)NC2=O (stereo not drawn) [Compound 760, 3-[3,5-dimethyl-4-(2-{4-oxo-2-[4-(3,3,3-trifluoro-propyl)-cyclohexyl]-1,3,8-triaza-spiro[4.5]dec-1-ene-8-sulfonyl}-ethyl)-phenyl]-1-methyl-imidazolidine-2,4-dione]"
22,63,"CC(=O)Nc1ccc(CCS(=O)(=O)N2CCC3(CC2)N=C(c2cccc(C(F)(F)F)c2)NC3=O)c(C)c1 [Compound 298, N-(3-methyl-4-{2-[4-oxo-2-(3-trifluoromethyl-phenyl)-1,3,8-triaza-spiro[4.5]dec-1-ene-8-sulfonyl]-ethyl}-phenyl)-acetamide]"

row,SMILES,cAMP production activity (%)
1,"Cc1cc(OCCC(O)CO)ccc1/C=C/S(=O)(=O)N1CCC2(CC1)N=C(c1ccc3c(c1)OC(F)(F)O3)NC2=O (stereo not drawn) [Compound 1167, 2-(2,2-difluoro-benzo[1,3]dioxol-5-yl)-8-{(E)-2-[4-(3,4-dihydroxy-butoxy)-2-methyl-phenyl]-ethenesulfonyl}-1,3,8-triaza-spiro[4.5]dec-1-en-4-one]",115
2,"Cc1cc(C(=O)N2CCC(C)(O)CC2)cc(C)c1/C=C/S(=O)(=O)N1CCC2(CC1)N=C(c1ccc(OC(F)(F)F)c(OCCCC(F)(F)F)c1)NC2=O [Compound 1232, 8-{(E)-2-[4-(4-hydroxy-4-methyl-piperidine-1-carbonyl)-2,6-dimethyl-phenyl]-ethenesulfonyl}-2-[3-(4,4,4-trifluoro-butoxy)-4-trifluoromethoxy-phenyl]-1,3,8-triaza-spiro[4.5]dec-1-en-4-one]",106

# — patent publication US9169254B2, “Spiroimidazolone derivative” (Chugai Seiyaku Kabushiki Kaisha, priority 2009, dated 2015)
